Results on 8 compounds are retold here after patent US8088804B2, “N-hydroxyamide derivatives possessing antibacterial activity” (Pfizer Inc., priority 2005, dated 2012).

The subject of experiment [1] is P. aerug. (2). Nature of the experiment: Susceptibility testing (MIC, CLSI microdilution). Format: cell-based, Pseudomonas aeruginosa. The conditions noted are these: 20 h at 35° C., in µg/mL (unit assumed). The procedure: (§1) Compounds were tested following the microdilution method of CLSI (Clinical and Laboratory Standards Institute. Methods for dilution antimicrobial susceptibility tests for bacteria that grow aerobically; Approved standard—sixth edition. CLSI document M7-A5, CLSI, Wayne, Pa. 2003). Assays were performed in sterile plastic 96-well microtiter trays with round bottom wells (Greiner).
(§2) Stock solutions of test compounds and control antibiotics were prepared at 10 mg/ml in DMSO. Serial 2-fold dilutions of each drug were performed in a microtiter plate across each row using DMSO as solvent at 100-fold the desired final concentration. Wells in columns #1-11 contain drug and column #12 was kept as a growth control for the organism with no drug. Each well in the mother plate was diluted with sterile deionized water and DMSO, mixed, and volumes of 10 μl distributed to each well in the resulting assay plates.
(§3) Stock cultures were prepared using the Microbank™ method (Pro-Lab Diagnostics) and stored at −80° C. To propagate each strain, one bead was removed from the frozen vial and aseptically streaked onto Trypticase Soy Agar (Difco) which were incubated at 35° C. Standardized inocula were prepared using the direct colony suspension method according to CLSI guidelines (Clinical and Laboratory Standards Institute. Methods for dilution antimicrobial susceptibility tests for bacteria that grow aerobically; Approved standard—sixth edition. CLSI document M7-A5, CLSI, Wayne, Pa., 2003). Isolated colonies were selected from an 18-24 hr agar plate and resuspended in 0.9% sterile saline to match a 0.5 McFarland turbidity standard using a calorimeter (Vitek) at 80% of transmitance. The suspension was used within 15 minutes of preparation.
(§4) Mueller-Hinton Broth (MHB) (Difco) was prepared at a 1.1× concentration and supplemented with Ca++ and Mg++ as recommended by CLSI. For each organism, the standardized suspension was diluted 1:180 into appropriate growth medium in a sterile reservoir. After mixing, wells in the drug-containing assay plates were inoculated with a volume of 90 μl. Thus, for each minimum inhibitory concentration (MIC) determination, each well contains a final volume of 100 μl with an inoculum size of approximately 5×10^5 colony forming units (cfu)/ml and no more than 1% DMSO.
(§5) The completed microtiter plates were incubated 20 h at 35° C. in ambient air. Optical density of each well was determined at 600 nm using a VersaMax Microplate reader (Molecular Devices, Sunnyvale, Calif.). The MIC was defined as the lowest drug concentration causing complete suppression of visible bacterial growth.

The subject of experiment [2] is P. aerug. Hypersuc. In words: Susceptibility testing (MIC, CLSI microdilution). Format: cell-based, Pseudomonas aeruginosa. To be noted: 20 h at 35° C., Δ efflux, hypersusceptible strain, unit assumed. How it is done:
as §1, §2, §3, §4, §5

Experiment [3] concerns E. coli (2). In words: Susceptibility testing (MIC, CLSI microdilution). The experiment is classed as cell-based, Escherichia coli. To be noted: 20 h at 35° C., in µg/mL (unit assumed). The procedure:
as §1, §2, §3, §4, §5

The subject of experiment [4] is E. coli tolC. In words: Susceptibility testing (MIC, CLSI microdilution). The experiment is classed as cell-based, Escherichia coli. To be noted: 20 h at 35° C., unit assumed. The procedure:
as §1, §2, §3, §4, §5

Experiment [5] relates to H. influen. In words: Susceptibility testing (MIC, CLSI microdilution). The experiment is classed as cell-based, Haemophilus influenzae. The conditions noted are these: 20 h at 35° C., unit assumed. The procedure: as §1, §2, §3, §4, §5
The target of experiment [6] is P. ae LpxC enzyme (Pseudomonas aeruginosa, UniProt P47205). Nature of the experiment: Enzyme inhibition testing (fluorescamine assay). Format: biochemical. The conditions noted are these: read-out: ENZYME (percent inhibition); for inhibition at 0.5 µg/mL: @0.5 μg/ml. How it is done: Compounds were tested based on a published method (Wang W., 2001, Anal Biochem, 290, 338-46) with modifications. Enzyme assays were performed in the assay buffer (50 mM HEPES, pH8, 0.005% Brij, 50 μM ZnSO4, 1 mg/ml BSA) in 96-well V-bottom microtiter plates.
Stock solutions of test compounds and control antibiotics are prepared at 10 mg/ml in DMSO and are diluted in the assay buffer to 6-fold the final testing concentration. 5 μl compound dilution is distributed to the well of the assay plate. EDTA is used as positive control and the final concentration in assay is 12.5 mM.
P. ae LpxC enzyme dilution in the assay buffer is added to the compound in plate and pre-incubated with the compound at room temperature for 10 min. LpxC substrate is added to initiate the enzyme reaction and the final enzyme and substrate concentrations are 1.2 μM and 0.4 mM, respectively. The reaction continues at RT for 4 hrs before diluted with 45 μl of Borate buffer (0.4 M, pH9), followed by addition of 40 μl derivatization reagent (fluorescamine 2 mg/ml DMF). This mixture is incubated at RT for 10 min followed by addition of 150 μl DMF/H2O (1:1). The resulting solution is loaded onto Millipore filter unit (Microcon 10 k MWCO) and spun at 13 k rpm on bench top centrifuge for 15 min. 100 μl of this filtrate is transferred to a low fluorescence clear-bottom 96-well plate (Corning) and the fluorescence is detected at ex360 nm and em465 nm on a Tecan fluorescence plate reader. The percent inhibition is calculated based on EDTA produces 100% inhibition and negative control produces 100% activity.

Experiment [7] has as its system K. pneu. In words: Susceptibility testing (MIC, CLSI microdilution). The conditions noted are these: 20 h at 35° C., unit assumed. Format: cell-based, Klebsiella pneumoniae. The procedure: as §1, §2, §3, §4, §5

In brackets after ≈: the same amount, converted by molar mass. Bounds are passed on as bounds.

P. ae LpxC enzyme, sequence (P47205 whole entry): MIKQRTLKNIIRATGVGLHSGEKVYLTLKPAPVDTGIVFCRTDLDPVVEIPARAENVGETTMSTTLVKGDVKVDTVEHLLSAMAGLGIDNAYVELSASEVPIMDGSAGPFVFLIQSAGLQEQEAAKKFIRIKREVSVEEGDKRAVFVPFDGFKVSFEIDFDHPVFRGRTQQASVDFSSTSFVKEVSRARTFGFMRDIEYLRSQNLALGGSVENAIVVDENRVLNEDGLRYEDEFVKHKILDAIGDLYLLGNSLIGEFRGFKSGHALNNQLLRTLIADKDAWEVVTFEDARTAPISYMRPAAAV

For the compound `CCCc1ccc(-c2ccc(C(=O)NC(CS(C)(=O)=O)C(=O)NO)cc2)cc1` (stereo in doubt) [Compound 29, (S)-N-(1-(Hydroxyamino)-3-(methylsulfone)-1-oxopropan-2-yl)-4′-propylbiphenyl-4-carboxamide], in experiment [1], the “MIC P. aerug. (2)” value is above 64. This compound also showed an MIC P. aerug. Hypersuc in experiment [2] of 32 µg/mL (≈ 79.1 µM). The “MIC E. coli (2)” value in experiment [3] was above 64. Also, the MIC E. coli tolC in experiment [4] is at most 0.06 µg/mL. Besides, the MIC H. influen. in experiment [5] was above 64 µg/mL. Also, the inhibition at 0.1 µg/mL in experiment [6] (@0.1 μg/ml) came out at 59%. In experiment [7], the MIC K. pneu. was determined as 4 µg/mL (≈ 9.89 µM).

`CCCc1ccc(-c2ccc(C(=O)N3CC[C@H](N=[N+]=[N-])[C@H]3C(=O)NO)cc2)cc1` [Compound 1, (2S,3S)-3-Azido-N-hydroxy-1-(4′-propylbiphenylcarbonyl)pyrrolidine-2-carboxamide]: in experiment [1], the “MIC P. aerug. (2)” value was above 64. In experiment [2], this compound had an MIC P. aerug. Hypersuc above 64 µg/mL. For the same compound, the “MIC E. coli (2)” value in experiment [3] is above 64. Also, the MIC E. coli tolC in experiment [4] stood at 32 µg/mL (≈ 81.3 µM). In experiment [5], the MIC H. influen. was above 64 µg/mL. In experiment [6], the inhibition at 0.5 µg/mL is 35%. The MIC K. pneu. in experiment [7] was above 64 µg/mL.

Turning to `CCCc1ccc(-c2ccc(C(=O)N3CC[C@H](NS(C)(=O)=O)[C@H]3C(=O)NO)cc2)cc1` [Compound 3, (2S,3S)-N-Hydroxy-3-(methylsulfonamido)-1-(4′-propylbiphenylcarbonyl)pyrrolidine-2-carboxamide], in experiment [1], the “MIC P. aerug. (2)” value is listed as above 64. Moreover, the MIC P. aerug. Hypersuc in experiment [2] was above 64 µg/mL. Besides, the “MIC E. coli (2)” value in experiment [3] is above 64. In experiment [4], this compound showed an MIC E. coli tolC of 32 µg/mL (≈ 71.8 µM). Also, the MIC H. influen. in experiment [5] was above 64 µg/mL. Further, the inhibition at 0.5 µg/mL in experiment [6] was found to be 55%. The compound also yielded an MIC K. pneu. in experiment [7] above 64 µg/mL.

With `CCCc1ccc(-c2ccc(C(=O)N3CC[C@H](NC=O)[C@H]3C(=O)NO)cc2)cc1` [Compound 4, (2S,3S)-3-Formamido-N-hydroxy-1-(4′-propylbiphenylcarbonyl)pyrrolidine-2-carboxamide], the “MIC P. aerug. (2)” value in experiment [1] is above 64. This compound also registered an MIC P. aerug. Hypersuc in experiment [2] of 64 µg/mL (≈ 162 µM). Moreover, the “MIC E. coli (2)” value in experiment [3] is reported as above 64. In experiment [4], this compound returned an MIC E. coli tolC of 32 µg/mL (≈ 80.9 µM). Besides, the MIC H. influen. in experiment [5] was above 64 µg/mL. Further, the inhibition at 0.5 µg/mL in experiment [6] is 69%. The MIC K. pneu. in experiment [7] was above 64 µg/mL.

Consider `CCCc1ccc(-c2ccc(C(=O)N3CC[C@H](NC)[C@H]3C(=O)NO)cc2)cc1` [Compound 5], for which the “MIC P. aerug. (2)” value in experiment [1] is recorded as above 64. For the same compound, in experiment [2], the MIC P. aerug. Hypersuc came out at 64 µg/mL (≈ 168 µM). Also, in experiment [3], the “MIC E. coli (2)” value is 64. The MIC E. coli tolC in experiment [4] came out at 32 µg/mL (≈ 83.9 µM). For the same compound, the MIC H. influen. in experiment [5] is 32 µg/mL (≈ 83.9 µM). Moreover, in experiment [6], the inhibition at 0.5 µg/mL was 29%. For the same compound, the MIC K. pneu. in experiment [7] was above 64 µg/mL.

`CCCc1ccc(-c2ccc(C(=O)N3CC[C@H](F)[C@H]3C(=O)NO)cc2)cc1` [Compound 6]: in experiment [1], the “MIC P. aerug. (2)” value is given as above 64. In experiment [2], this compound displayed an MIC P. aerug. Hypersuc of 32 µg/mL (≈ 86.4 µM). The “MIC E. coli (2)” value in experiment [3] is listed as above 64. This compound also returned an MIC E. coli tolC in experiment [4] of 16 µg/mL (≈ 43.2 µM). In experiment [5], this compound gave an MIC H. influen. above 64 µg/mL. The inhibition at 0.5 µg/mL in experiment [6] was 87%. For the same compound, the MIC K. pneu. in experiment [7] was 32 µg/mL (≈ 86.4 µM).

Consider `CCCc1ccc(-c2ccc(C(=O)N3CC[C@@H](OC)[C@H]3C(=O)NO)cc2)cc1` [Compound 8], for which, in experiment [1], the “MIC P. aerug. (2)” value is above 64. The compound also yielded an MIC P. aerug. Hypersuc in experiment [2] above 64 µg/mL. The “MIC E. coli (2)” value in experiment [3] is above 64. In addition, in experiment [4], the MIC E. coli tolC was 32 µg/mL (≈ 83.7 µM). This compound also yielded an MIC H. influen. in experiment [5] of 64 µg/mL (≈ 167 µM). Further, in experiment [6] (@10 μg/ml), the inhibition at 10 µg/mL was determined as 21%. The compound further showed an MIC K. pneu. in experiment [7] above 64 µg/mL.

Turning to `CCCc1ccc(-c2ccc(C(=O)N3C[C@@](O)(COC)C[C@H]3C(=O)NO)cc2)cc1` [Compound 9, (2S,4R)-N,4-Dihydroxy-4-(methoxymethyl)-1-(4′-propylbiphenylcarbonyl)pyrrolidine-2-carboxamide], the “MIC P. aerug. (2)” value in experiment [1] is given as above 64. In addition, in experiment [2], the MIC P. aerug. Hypersuc was 32 µg/mL (≈ 77.6 µM). The “MIC E. coli (2)” value in experiment [3] is reported as above 64. For the same compound, in experiment [4], the MIC E. coli tolC was above 64 µg/mL. The compound also showed an MIC H. influen. in experiment [5] above 64 µg/mL. Besides, the inhibition at 1 µg/mL in experiment [6] (@1 μg/ml) came out at 57%. For the same compound, the MIC K. pneu. in experiment [7] is above 64 µg/mL.
